Assay results: patent publication US10800741B2 (ANCUREALL PHARMACEUTICAL (SHANGHAI) CO., LTD., priority 2017, dated 2020)

Key:
Format in all cases: cell-based, Human
H1581 (FGFR1 amp) = test: In vitro growth inhibition of H1581 tumor cells (MTT/CCK8); conditions: Homo sapiens, NCI-H1581; in vitro growth inhibition (or induction of apoptosis), cells cultured 3 to 5 days, MTT (CCK8); read-out: IC50 H1581 (FGFR1 amp)
KATO III (FGFR2 amp) = test: In vitro growth inhibition of KATO III tumor cells (MTT/CCK8); conditions: Homo sapiens, KATO III; in vitro growth inhibition (or induction of apoptosis), cells cultured 3 to 5 days, MTT (CCK8); read-out: IC50 KATO III (FGFR2 amp)
Hep3B2 (FGFR3/4+++) = test: In vitro growth inhibition of Hep3B2 tumor cells (MTT/CCK8); conditions: Homo sapiens, Hep3B; in vitro growth inhibition (or induction of apoptosis), cells cultured 3 to 5 days, MTT (CCK8); read-out: IC50 Hep3B2 (FGFR3/4+++)
MOLM-13 (FLT3-ITD) = test: In vitro growth inhibition of MOLM-13 tumor cells (MTT/CCK8); conditions: Homo sapiens, MOLM-13; in vitro growth inhibition (or induction of apoptosis), cells cultured 3 to 5 days, MTT (CCK8); read-out: IC50 MOLM-13 (FLT3-ITD)
KCL-22 (BCR-ABL) = test: In vitro growth inhibition of KCL-22 tumor cells (MTT/CCK8); conditions: Homo sapiens, KCL-22; in vitro growth inhibition (or induction of apoptosis), cells cultured 3 to 5 days, MTT (CCK8); read-out: IC50 KCL-22 (BCR-ABL)
Kasumi-1 (KIT N822K) = test: In vitro growth inhibition of Kasumi-1 tumor cells (MTT/CCK8); conditions: Homo sapiens, Kasumi 1; in vitro growth inhibition (or induction of apoptosis), cells cultured 3 to 5 days, MTT (CCK8); read-out: IC50 Kasumi-1 (KIT N822K)
H1703 (PDGFRa amp) = test: In vitro growth inhibition of H1703 tumor cells (MTT/CCK8); conditions: Homo sapiens, NCI-H1703; in vitro growth inhibition (or induction of apoptosis), cells cultured 3 to 5 days, MTT (CCK8); read-out: IC50 H1703 (PDGFRa amp)
Karpas 299 (NPM-ALK) = test: In vitro growth inhibition of Karpas 299 tumor cells (MTT/CCK8); conditions: Homo sapiens, KARPAS-299; in vitro growth inhibition (or induction of apoptosis), cells cultured 3 to 5 days, MTT (CCK8); read-out: IC50 Karpas 299 (NPM-ALK)

| IC50 (H1581 (FGFR1 amp)) [nM] | IC50 (KATO III (FGFR2 amp)) [nM] | IC50 (Hep3B2 (FGFR3/4+++)) [nM] | IC50 (MOLM-13 (FLT3-ITD)) [nM] | IC50 (KCL-22 (BCR-ABL)) [nM] | IC50 (Kasumi-1 (KIT N822K)) [nM] | IC50 (H1703 (PDGFRa amp)) [nM] | IC50 (Karpas 299 (NPM-ALK)) [nM] | Compound |
| --- | --- | --- | --- | --- | --- | --- | --- | --- |
| 164 | 6.83 | 270 | 72.2 | 19.2 | 24.8 | 436 | 863 | COc1cc2nccc(Oc3ccc(NC(=O)Nc4cc(C(C)(C)C)n[nH]4)c(Cl)c3)c2cc1C#N [Compound 67, 1-(5-tert-butyl-2H-pyrazol-3-yl)-3-[2-chloro-4-(6-cyano-7-methoxy-quinolin-4-yloxy)-phenyl]-urea] |
| 79.9 | 2.96 | 157 | 1.16 | 57 | 91.8 | 83.3 | 160 | CNC(=O)c1cc2c(Oc3ccc(NC(=O)Nc4cc(C(C)(C)C)nn4C)cc3Cl)ccnc2cc1OC [Compound 55, 4-{4-[3-(5-tert-butyl-2-methyl-2H-pyrazol-3-yl)-ureido]-2-chloro-phenoxy}-7-methoxy quinolin-6-carboxylic acid methylamide] |
| 160 | 40.1 | 526 | 1.17 | > 1000 | > 1000 | 163 | 768 | COc1cc2nccc(Oc3ccc(NC(=O)Nc4cc(C(C)(C)C)n[nH]4)cn3)c2cc1NC(C)=O [Compound 104, N-(4-{5-[3-(5-tert-butyl-2H-pyrazol-3-yl)-ureido]-pyridin-2-yloxy}-7-methoxy-quinolin-6-yl)-acetamide] |
| 11.7 | 1.36 | 44.1 | 11.6 | 22.3 | 35.7 | 25.9 | 502 | CNC(=O)c1cc2c(Oc3ccc(NC(=O)Nc4cc(C(C)(C)C)nn4C4CCCC4)c(Cl)c3)ccnc2cc1OC [Compound 48, 4-{4-[3-(5-tert-butyl-2-cyclopentyl-2H-pyrazol-3-yl)-ureido]-3-chloro-phenoxy}-7-methoxyquinolin-6-carboxylic acid methylamide] |
| 1.31 | 0.36 | 5.2 | 0.89 | 1.05 | 0.493 | 6.71 | 12.4 | CNC(=O)c1cc2c(Oc3ccc(NC(=O)Nc4cc(C(C)(C)C)nn4C)c(Cl)c3Cl)ccnc2cc1OCCOC [Compound 60, 4-{4-[3-(5-tert-butyl-2-methyl-2H-pyrazol-3-yl)-ureido]-2,3-dichloro-phenoxy}-7-(2-methoxy-ethoxy)-quinolin-6-carboxylic acid methylamide] |
| 35.8 | 0.18 | 56.6 | 17.1 | 163 | 132 | 73.2 | 736 | COc1cc2nccc(Oc3ccc(NC(=O)Nc4cc(C(C)(C)C)nn4CCO)c(Cl)c3)c2cc1C(N)=O [Compound 32, 4-(4-{3-[5-tert-butyl-2-(2-hydroxy-ethyl)-2H-pyrazol-3-yl]-ureido}-3-chloro-phenoxy)-7-methoxyquinolin-6-carboxamide] |
| 92.9 | 5.94 | 150 | 15.3 | 190 | 260 | 59.5 | 851 | CN(C)CCOc1cc2nccc(Oc3ccc(NC(=O)Nc4cc(C(C)(C)C)n[nH]4)c(Cl)c3)c2cc1C(N)=O [Compound 83] |
| 17.4 | 2.8 | 37.5 | 7.07 | 26.6 | 88.9 | 157 | 398 | CCC(=O)Nc1cc2c(Oc3ccc(NC(=O)Nc4cc(C(C)(C)C)on4)c(Cl)c3)ccnc2cc1OC [Compound 21, N-(4-{4-[3-(5-tert-butyl-isoxazol-3-yl)-ureido]-3-chloro-phenoxy}-7-methoxyquinolin-6-yl)-propionamide] |
| 1.75 | 1.14 | 13.9 | 2.21 | 5.55 | 22.1 | 8.71 | 195 | COc1cc2nccc(Oc3ccc(NC(=O)Nc4cc(C(C)(C)C)on4)c(Cl)c3)c2cc1NC(C)=O [Compound 20] |
| > 1000 | 363 | > 1000 | > 1000 | > 1000 | ≥ 1000 | 370 | > 1000 | CNC(=O)c1cc2c(Oc3ccc(NC(=O)N4CCCC4)c(Cl)c3Cl)ccnc2cc1OCCOC [Compound 76, 4-{2,3-dichloro-4-[(pyrrolidin-1-carbonyl)-amino]-phenoxy}-7-(2-methoxy-ethoxy)-quinolin-6-carboxylic acid methylamide] |
| 270 | 12.1 | 677 | 2.41 | 28.1 | 89.8 | 20.4 | > 1000 | COc1cc2nccc(Oc3ccc(N(C)C(=O)Nc4cc(C(C)(C)C)on4)cc3)c2cc1C(N)=O [Compound 11, 4-{4-[3-(5-tert-butyl-isoxazol-3-yl)-1-methyl-ureido]-phenoxy}-7-methoxyquinolin-6-carboxamide] |
| 3.06 | 0.98 | 39.1 | 6.98 | 8.17 | 14.4 | 8.8 | 384 | CNC(=O)c1cc2c(Oc3ccc(NC(=O)Nc4cc(C(C)(C)C)nn4C)c(Cl)c3)ccnc2cc1OC [Compound 46, 4-{4-[3-(5-tert-butyl-2-methyl-2H-pyrazol-3-yl)-ureido]-3-chloro-phenoxy}-7-methoxy quinolin-6-carboxylic acid methylamide] |
| 4.26 | 0.31 | 15.9 | 3.12 | 4.68 | 8.81 | 12 | 113 | COc1cc2nccc(Oc3ccc(NC(=O)Nc4cc(C(C)(C)C)n[nH]4)c(Cl)c3)c2cc1NC(C)=O [Compound 63, N-(4-{4-[3-(5-tert-butyl-2H-pyrazol-3-yl)-ureido]-3-chloro-phenoxy}-7-methoxyquinolin-6-yl)-acetamide] |
| 127 | 2.53 | 446 | 19.6 | 112 | 106 | 93 | 721 | COc1cc2nccc(Oc3ccc(NC(=O)Nc4cc(C(C)C)n[nH]4)c(Cl)c3)c2cc1C(N)=O [Compound 40, 4-{3-chloro-4-[3-(5-isopropyl-2H-pyrazol-3-yl)-ureido]-phenoxy}-7-methoxyquinolin-6-carboxamide] |
| 6.87 | 1.46 | 27.4 | 35.4 | 14 | 27.8 | 16.6 | 725 | COc1cc2nccc(Oc3ccc(NC(=O)Nc4cc(C(C)(C)C)on4)c(Br)c3)c2cc1C(N)=O [Compound 3, 4-{3-bromo-4-[3-(5-tert-butyl-isoxazol-3-yl)-ureido]-phenoxy}-7-methoxyquinolin-6-carboxamide] |
